Laboratory results published in ChEMBL document CHEMBL3832075, “DailyMed|setid=ff7c9b1c-4192-4d09-a2ab-b80ec14cd424 | PENTOXIL- pentoxifylline tablet, film coated, extended release|UPSHER-SMITH LABORATORIES, INC”.

Experiments:
[1] = (§1) Pharmacokinetic parameters for Pentoxifylline evaluated after oral administration of Pentoxifylline tablet and in aqueous solution.; format: ADME, organism-based; details: human, in vivo, dosed compound id 54, dosed compound name PENTOXIFYLLINE, tissue Plasma
Homo sapiens = assay: as §1; format: ADME, organism-based; details: in vivo, po, dose 400 mg, dosed compound id 54, dosed compound name PENTOXIFYLLINE, tissue Plasma

With `CC(=O)CCCCn1c(=O)c2c(ncn2C)n(C)c1=O` [PENTOXIFYLLINE] as the compound, how does the half-life ([1]; dose 100 to 400 mg) read?
The half-life was 0.4 to 0.8 h.

What about the Tmax [1] of the same compound?
Its Tmax is 1 h.

And the Tmax (Homo sapiens)?
The Tmax was 2 to 4 h.
